ChEMBL document CHEMBL1201862, “PubChem BioAssay data set” (2004)
Calls of active or inactive are those of the source.

Assays:
[1] = target: T1, Ubiquitin-conjugating enzyme E2 N (Homo sapiens, UniProt P61088); format: functional;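 note: Dose-response confirmation in a TR-FRET assay detecting UBC13-driven polyubiquitin chain formation, inhibition measured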
T1 sequence (P61088 whole entry): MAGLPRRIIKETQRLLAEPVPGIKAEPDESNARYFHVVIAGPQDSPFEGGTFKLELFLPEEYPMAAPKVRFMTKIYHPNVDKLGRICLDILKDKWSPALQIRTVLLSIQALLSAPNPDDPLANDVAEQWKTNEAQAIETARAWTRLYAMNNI

[2] = HIV-1 AD8 envelope cell-cell fusion blockers – cherry-pick, dose response (AID 652062); format: functional, cell-based;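 note: luciferase signal from cell-cell fusion driven by HIV-1 clade B AD8 Env; potency is for inhibitors of fusion seen as a drop in luminescence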
[3] = blockers of HIV-1 envelope-mediated cell-cell fusion – cherry-pick, dose response (AID 652057); format: functional, cell-based
[4] = target: T2, Carboxy-terminal domain RNA polymerase II polypeptide A small phosphatase 1 (Homo sapiens, UniProt Q9GZU7); assay: CTDSP1 inhibitors, concentration-response, biochemical, absorbance readout, ultra-high-throughput screen actives (AID 540297); format: functional
T2 sequence (Q9GZU7 whole entry): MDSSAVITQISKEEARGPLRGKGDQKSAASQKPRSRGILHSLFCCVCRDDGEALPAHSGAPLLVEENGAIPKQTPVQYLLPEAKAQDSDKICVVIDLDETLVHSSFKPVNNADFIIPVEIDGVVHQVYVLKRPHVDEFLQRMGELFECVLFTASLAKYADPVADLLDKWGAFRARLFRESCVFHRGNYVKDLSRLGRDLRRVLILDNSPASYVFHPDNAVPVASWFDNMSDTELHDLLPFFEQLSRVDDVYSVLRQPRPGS

[5] = target: T3, Short transient receptor potential channel 4 (Mus musculus, UniProt Q9QUQ5); assay: block of DAMGO-driven TRPC4 calcium entry – cell-based, HEK293 TRPC4/mu-opioid, Fluo-4 calcium, dose response (AID 434942); format: functional;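 note: potency of inhibitors blocking the TRPC4 calcium response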
T3 sequence (Q9QUQ5 whole entry): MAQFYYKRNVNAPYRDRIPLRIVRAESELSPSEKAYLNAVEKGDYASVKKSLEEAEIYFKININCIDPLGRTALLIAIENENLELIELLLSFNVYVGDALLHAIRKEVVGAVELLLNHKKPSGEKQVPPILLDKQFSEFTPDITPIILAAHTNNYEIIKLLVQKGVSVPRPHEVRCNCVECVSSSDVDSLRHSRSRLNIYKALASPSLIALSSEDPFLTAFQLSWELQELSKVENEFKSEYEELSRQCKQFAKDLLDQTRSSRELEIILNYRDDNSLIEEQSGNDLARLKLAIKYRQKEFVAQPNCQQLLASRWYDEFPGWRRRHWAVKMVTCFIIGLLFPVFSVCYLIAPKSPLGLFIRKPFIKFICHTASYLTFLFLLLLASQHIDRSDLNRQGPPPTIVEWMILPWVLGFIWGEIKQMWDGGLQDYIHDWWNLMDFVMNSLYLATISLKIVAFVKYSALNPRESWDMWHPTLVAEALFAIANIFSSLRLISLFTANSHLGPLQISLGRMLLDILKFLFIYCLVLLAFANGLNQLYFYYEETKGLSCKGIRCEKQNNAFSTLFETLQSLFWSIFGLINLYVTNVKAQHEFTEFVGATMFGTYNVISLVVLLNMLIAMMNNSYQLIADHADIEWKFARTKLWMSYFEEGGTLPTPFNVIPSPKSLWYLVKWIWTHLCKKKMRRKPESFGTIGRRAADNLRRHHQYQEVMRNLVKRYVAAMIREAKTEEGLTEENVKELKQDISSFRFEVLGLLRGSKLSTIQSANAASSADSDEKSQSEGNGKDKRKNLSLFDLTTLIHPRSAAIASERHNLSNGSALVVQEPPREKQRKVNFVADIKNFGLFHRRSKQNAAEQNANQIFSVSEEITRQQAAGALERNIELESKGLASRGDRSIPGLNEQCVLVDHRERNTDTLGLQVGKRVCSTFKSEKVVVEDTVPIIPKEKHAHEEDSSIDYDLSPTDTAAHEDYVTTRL

CHO = CHO cell viability loss, potency – luminescence, cytotoxicity control for TLR9-MyD88 binding inhibitor project, dose response (AID 588339); format: functional, cell-based, hamster; details: Cricetulus griseus;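 note: CHO cells stably coexpressing TLR9 and MyD88 fusions from primary screen; compound exposure lasted 48 hours before viability readout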
[6] = target: T4, DNA repair and recombination protein RAD54-like (Homo sapiens, UniProt Q92698); assay: RAD54 Holliday junction migration blockers – biochemical, fluorescence, cherry-picked samples, dose series, confirmation (AID 651657); format: functional
T4 sequence (Q92698 whole entry): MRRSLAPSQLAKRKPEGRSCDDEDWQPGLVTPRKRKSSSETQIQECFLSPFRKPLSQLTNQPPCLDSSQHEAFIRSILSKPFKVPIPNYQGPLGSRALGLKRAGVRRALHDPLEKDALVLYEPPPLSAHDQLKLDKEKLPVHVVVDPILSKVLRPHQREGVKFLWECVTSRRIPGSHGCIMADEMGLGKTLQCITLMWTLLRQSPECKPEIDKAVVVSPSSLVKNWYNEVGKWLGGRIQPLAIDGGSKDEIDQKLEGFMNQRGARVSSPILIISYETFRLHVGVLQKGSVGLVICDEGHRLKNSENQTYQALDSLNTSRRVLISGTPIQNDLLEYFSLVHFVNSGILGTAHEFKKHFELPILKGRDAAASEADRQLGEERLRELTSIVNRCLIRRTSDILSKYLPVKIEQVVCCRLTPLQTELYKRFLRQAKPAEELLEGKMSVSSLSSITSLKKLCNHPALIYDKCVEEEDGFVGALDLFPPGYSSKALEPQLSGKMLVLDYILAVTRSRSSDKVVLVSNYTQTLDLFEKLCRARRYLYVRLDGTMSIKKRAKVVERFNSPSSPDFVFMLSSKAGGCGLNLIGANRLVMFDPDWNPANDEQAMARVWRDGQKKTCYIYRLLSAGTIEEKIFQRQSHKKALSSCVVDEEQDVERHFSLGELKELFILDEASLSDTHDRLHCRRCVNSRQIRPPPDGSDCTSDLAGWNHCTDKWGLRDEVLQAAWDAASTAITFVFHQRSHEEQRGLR

[7] = target: Induced myeloid leukemia cell differentiation protein Mcl-1 (Homo sapiens, UniProt Q07820); format: functional
Induced myeloid leukemia cell differentiation protein Mcl-1, sequence (Q07820 whole entry): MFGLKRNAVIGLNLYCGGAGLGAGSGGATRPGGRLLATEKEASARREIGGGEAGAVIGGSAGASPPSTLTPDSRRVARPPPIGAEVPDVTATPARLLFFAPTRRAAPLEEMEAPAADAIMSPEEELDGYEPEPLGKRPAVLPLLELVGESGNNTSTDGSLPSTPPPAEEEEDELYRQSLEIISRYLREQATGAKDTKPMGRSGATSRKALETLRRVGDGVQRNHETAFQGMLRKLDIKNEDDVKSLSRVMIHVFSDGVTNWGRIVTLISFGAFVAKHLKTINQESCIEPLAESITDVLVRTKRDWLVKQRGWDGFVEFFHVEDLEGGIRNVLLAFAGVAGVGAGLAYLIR

Vero = assay: cells; format: functional; details: Chlorocebus sabaeus
[8] = target: T5, High affinity choline transporter 1 (Homo sapiens, UniProt Q9GZV3); assay: human choline transporter blockers, potency – cell-based, 5-point CRC, membrane potential dye, dose response (AID 504840); format: functional
T5 sequence (Q9GZV3 whole entry): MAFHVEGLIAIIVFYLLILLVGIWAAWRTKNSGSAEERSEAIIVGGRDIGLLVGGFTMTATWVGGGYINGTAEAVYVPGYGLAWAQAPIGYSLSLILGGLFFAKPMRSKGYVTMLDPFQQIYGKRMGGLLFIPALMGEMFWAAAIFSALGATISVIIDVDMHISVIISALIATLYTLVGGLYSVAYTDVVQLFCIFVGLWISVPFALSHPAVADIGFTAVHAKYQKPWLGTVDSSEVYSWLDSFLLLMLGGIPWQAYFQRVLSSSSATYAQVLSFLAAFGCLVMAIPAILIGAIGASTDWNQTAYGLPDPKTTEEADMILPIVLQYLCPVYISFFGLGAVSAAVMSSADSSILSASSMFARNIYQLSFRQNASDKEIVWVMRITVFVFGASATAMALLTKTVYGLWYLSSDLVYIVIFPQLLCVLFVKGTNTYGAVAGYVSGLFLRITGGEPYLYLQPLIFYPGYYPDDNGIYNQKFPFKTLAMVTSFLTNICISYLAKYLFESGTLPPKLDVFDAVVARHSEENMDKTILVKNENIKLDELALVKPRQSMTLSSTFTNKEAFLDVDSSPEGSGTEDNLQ

HEK293 = assay: EBV LMP1 TES2 canonical NF-kB signalling blockers – cell-based, HEK293, luciferase, cherry-pick, dose response (AID 588343); format: functional; details: Homo sapiens
[9] = viability of HCT116 lacking mutant beta-catenin – cell-based, human colon tumor, dose response (AID 1045); format: functional;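 note: HCT116 colon tumor cells with beta catenin knocked out; cells exposed to compound for 60 hours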
[10] = viability of PTEN-deleted HCT116 cells – cell-based, HCT116 PTEN knockout, dose response (AID 1047); format: functional;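 note: HCT116 colon tumor cells with PTEN knocked out; cells exposed to compound for 60 hours before readout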
P388 = assay: cells; format: functional; details: Mus musculus
P388/ADR = assay: cells; format: functional; details: Mus musculus
SN12K1 = assay: cells; format: functional; details: Homo sapiens
Paired box protein Pax-8 = Paired box protein Pax-8 (Homo sapiens, UniProt Q06710); assay: PAX8 transcriptional activity inhibition in RMG-I – RMG-I cells, luciferase, cherry-pick, dose response (AID 687027); format: functional, cell-based;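 note: luciferase reporter driven by Pax8 target thyroperoxidase promoter measured by SteadyGlo luminescence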
Paired box protein Pax-8, sequence (Q06710 whole entry): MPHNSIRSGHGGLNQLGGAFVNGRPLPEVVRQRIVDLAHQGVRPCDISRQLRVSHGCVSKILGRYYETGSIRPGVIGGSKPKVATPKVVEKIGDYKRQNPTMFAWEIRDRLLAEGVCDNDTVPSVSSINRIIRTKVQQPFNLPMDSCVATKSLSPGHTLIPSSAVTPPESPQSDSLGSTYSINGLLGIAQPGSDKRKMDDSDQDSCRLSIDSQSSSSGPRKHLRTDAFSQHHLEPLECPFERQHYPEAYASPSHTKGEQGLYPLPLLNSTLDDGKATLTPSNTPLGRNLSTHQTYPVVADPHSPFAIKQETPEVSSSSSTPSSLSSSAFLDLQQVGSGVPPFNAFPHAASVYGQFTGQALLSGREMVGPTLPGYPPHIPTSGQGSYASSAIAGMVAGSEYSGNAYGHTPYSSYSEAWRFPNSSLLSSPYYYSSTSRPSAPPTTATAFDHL

Fatty acid synthase [11] = target: T6, Fatty acid synthase (Homo sapiens, UniProt P49327); assay: inhibition of human FAS-TE enzyme activity – biochemical, kinetic fluorescence intensity, dose response (AID 624326); format: functional;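 note: rate of fluorescence rise from hydrolysis of a fluorogenic O-methyl fluorescein ester substrate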
T6 sequence (P49327 whole entry): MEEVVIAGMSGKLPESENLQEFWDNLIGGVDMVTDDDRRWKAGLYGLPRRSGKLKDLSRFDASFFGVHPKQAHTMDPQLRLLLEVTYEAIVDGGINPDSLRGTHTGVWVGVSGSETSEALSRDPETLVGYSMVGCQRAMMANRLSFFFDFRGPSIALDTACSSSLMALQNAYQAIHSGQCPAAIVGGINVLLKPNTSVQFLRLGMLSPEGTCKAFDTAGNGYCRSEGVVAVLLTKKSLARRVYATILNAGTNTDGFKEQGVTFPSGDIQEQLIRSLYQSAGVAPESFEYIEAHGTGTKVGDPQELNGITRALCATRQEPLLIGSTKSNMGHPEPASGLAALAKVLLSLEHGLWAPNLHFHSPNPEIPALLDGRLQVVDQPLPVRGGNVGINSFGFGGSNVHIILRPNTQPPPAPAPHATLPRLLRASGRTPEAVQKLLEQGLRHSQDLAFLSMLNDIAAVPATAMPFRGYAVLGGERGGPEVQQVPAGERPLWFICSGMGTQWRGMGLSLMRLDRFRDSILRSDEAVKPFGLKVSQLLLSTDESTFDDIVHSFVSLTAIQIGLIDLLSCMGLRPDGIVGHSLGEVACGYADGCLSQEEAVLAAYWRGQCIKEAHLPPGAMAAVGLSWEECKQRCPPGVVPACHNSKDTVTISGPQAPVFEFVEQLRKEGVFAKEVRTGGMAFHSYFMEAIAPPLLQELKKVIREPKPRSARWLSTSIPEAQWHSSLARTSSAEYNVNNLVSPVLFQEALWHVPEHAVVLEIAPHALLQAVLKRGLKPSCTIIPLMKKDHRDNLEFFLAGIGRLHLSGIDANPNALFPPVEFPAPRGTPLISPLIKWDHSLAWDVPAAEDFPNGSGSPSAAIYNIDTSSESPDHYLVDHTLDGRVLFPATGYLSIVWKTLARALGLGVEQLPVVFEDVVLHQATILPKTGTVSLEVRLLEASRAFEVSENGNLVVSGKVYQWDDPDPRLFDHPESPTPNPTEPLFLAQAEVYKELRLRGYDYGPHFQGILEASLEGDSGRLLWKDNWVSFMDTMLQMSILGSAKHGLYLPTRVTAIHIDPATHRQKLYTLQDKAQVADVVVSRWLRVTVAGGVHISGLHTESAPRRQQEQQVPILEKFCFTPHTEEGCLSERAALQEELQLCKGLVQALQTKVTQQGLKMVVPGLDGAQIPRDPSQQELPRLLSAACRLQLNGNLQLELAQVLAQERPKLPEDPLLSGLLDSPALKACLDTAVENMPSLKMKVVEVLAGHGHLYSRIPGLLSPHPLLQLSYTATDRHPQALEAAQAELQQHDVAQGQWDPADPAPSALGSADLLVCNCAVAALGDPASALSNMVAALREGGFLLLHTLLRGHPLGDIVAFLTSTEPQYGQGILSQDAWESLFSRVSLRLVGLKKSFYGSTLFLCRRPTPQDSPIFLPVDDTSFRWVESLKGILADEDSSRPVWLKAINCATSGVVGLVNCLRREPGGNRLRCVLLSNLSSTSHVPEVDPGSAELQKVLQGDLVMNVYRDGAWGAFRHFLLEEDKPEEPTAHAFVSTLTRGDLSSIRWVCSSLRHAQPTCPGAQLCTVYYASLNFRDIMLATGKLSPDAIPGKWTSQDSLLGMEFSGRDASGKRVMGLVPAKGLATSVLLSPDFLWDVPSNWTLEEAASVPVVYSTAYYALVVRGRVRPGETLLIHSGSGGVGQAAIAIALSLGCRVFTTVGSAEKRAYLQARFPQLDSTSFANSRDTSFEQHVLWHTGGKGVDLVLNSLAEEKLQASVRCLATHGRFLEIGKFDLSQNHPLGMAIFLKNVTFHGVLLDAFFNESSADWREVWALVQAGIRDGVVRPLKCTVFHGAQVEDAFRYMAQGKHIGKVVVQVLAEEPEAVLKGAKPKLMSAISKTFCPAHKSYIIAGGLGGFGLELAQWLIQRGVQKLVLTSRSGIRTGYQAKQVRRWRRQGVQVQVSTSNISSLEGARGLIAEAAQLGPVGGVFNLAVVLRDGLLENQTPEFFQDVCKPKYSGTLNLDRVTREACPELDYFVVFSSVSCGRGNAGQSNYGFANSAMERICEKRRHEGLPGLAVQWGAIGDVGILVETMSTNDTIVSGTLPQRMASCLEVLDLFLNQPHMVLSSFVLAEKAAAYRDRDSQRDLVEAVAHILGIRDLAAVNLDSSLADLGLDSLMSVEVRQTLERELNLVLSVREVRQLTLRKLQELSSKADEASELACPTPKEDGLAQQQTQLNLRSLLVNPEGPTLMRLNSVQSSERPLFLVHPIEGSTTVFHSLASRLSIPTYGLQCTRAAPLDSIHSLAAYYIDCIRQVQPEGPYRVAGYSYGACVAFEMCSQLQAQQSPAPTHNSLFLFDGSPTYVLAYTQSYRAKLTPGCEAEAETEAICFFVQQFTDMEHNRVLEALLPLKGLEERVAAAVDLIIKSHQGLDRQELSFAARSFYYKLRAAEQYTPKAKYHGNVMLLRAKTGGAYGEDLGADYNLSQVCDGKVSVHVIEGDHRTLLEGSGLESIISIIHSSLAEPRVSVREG

cells = format: functional
Fatty acid synthase [12] = target: T6, Fatty acid synthase; assay: inhibition of human FAS-TE enzyme activity – biochemical, endpoint fluorescence intensity, uHTS hits, dose response (AID 624327); format: functional;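 note: fluorescence from hydrolysis of an O-methyl fluorescein acyl ester substrate by the enzyme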
H9c2 = assay: cells; format: functional, cell-based; details: Rattus norvegicus, H9c2, Myocardium

## CCCC(C(=O)NC(C)(C)C)N(CC1CCCO1)C(=O)c1snc(C(N)=O)c1N (configuration not stated)
[1]
  IC50: > 20 µM (inactive)

## COc1cccc(S(=O)(=O)N(C)C[C@H]2Oc3cc(C4=CCCCC4)ccc3S(=O)(=O)N([C@H](C)CO)C[C@H]2C)c1
[2]
  AC50: 2.06 µM (active)
[3]
  AC50: 0.409 µM (active)

## O=C(COC(=O)c1ccccc1NCCO)Nc1cccc(S(=O)(=O)NC2=NCCCCC2)c1
[4]
  IC50: 10.2 µM (active)

## CC(=O)N(c1ccc(Cl)cc1)c1c[nH]c2ccccc12
[5]
  EC50: 18.8 µM (active)

## Cc1ccc(Sc2ccc(CO)cc2[N+](=O)[O-])cc1
[5]
  EC50: 3.35 µM (active)

## CS(=O)(=O)c1sc2nc(-c3ccccc3)cc(-c3ccccc3)c2c1N
CHO
  IC50: > 49.8 µM (inactive)

## CCOC(=O)N1CCN(C(=O)c2ccc3c(c2)N(Cc2ccc(F)cc2)CCS3)CC1
[1]
  IC50: > 20 µM (inactive)

## Cc1cc2[nH]c3ccccc3c2c(C)n1
[5]
  EC50: 1.68 µM (active)

## COc1ccc(S(=O)(=O)c2cnc(S)nc2O)cc1Cl
[4]
  IC50: 8.64 µM (active)

## CCN(CC)CCCNc1nc(-c2ccccc2)nc2ccccc12
[6]
  AC50: 13 µM (active)

## CCNc1nc(NCC)n2c(SCC(=O)Nc3cccc(Cl)c3)nnc2n1
[4]
  IC50: 16.2 µM (active)

## COc1ccc(NC(=O)CSc2nc3ccsc3c(=O)n2CCCCCC(=O)O)cc1
[1]
  IC50: > 20 µM (inactive)

## COc1ccc(N(C(=O)c2snc(C(N)=O)c2N)C(C(=O)NC2CCCC2)c2ccc3ncccc3c2)cc1 (configuration not stated)
[1]
  IC50: > 20 µM (inactive)

## COCCN(C(=O)Cn1nnc2ccccc21)C(C(=O)NC1CCCCC1)c1ccc(OC)cc1OC (configuration not stated)
[4]
  IC50: 14.9 µM (active)

## Oc1ccc(/C=N/Nc2nc(-c3cccnc3)nc3ccccc23)c(O)c1
[7]
  IC50: 52.8 µM (not active)

## CC(c1ccccc1)n1c(-c2cccs2)nc2c(c(=O)c3ccccc3n2C)c1=O (configuration not stated)
Vero
  CC50: > 25 µM (active)

## COC(=O)c1cccc(NC(S)=Nc2cccc(Cl)c2Cl)c1
[5]
  EC50: 8.41 µM (active)

## O=C(Nc1ccccc1Cl)c1cnccn1
[7]
  IC50: 8.55 µM (not active)

## O=C(O)c1[nH]c2ccc(Cl)cc2c1CC(=O)N1CCN(c2ccccc2)CC1
[8]
  IC50: 13.2 µM (active)

## CC(C)CC1C(=O)N(Cc2cn(CC3CCCCC3)nn2)CCS(=O)(=O)N1Cc1ccc(-c2ccc(F)nc2)cc1 (configuration not stated)
HEK293
  AC50: 32.8 µM (active)
Vero
  CC50: 19.6 µM (active)

## Cc1ccc(O)c(C(=O)c2cnn(C(=O)COc3ccc(Cl)cc3)c2)c1
[4]
  IC50: 3.89 µM (active)

## CN(CCNC(=O)CCCOc1cc(=O)n(C)c2ccccc12)Cc1ccccc1
[1]
  IC50: > 20 µM (inactive)

## COc1cccc(C(=O)Nc2ccc3nc(N4CCN(c5ncccn5)CC4)cc(C)c3c2)c1OC
[7]
  IC50: 5.6 µM (active)
[9]
  EC50: 6.95 µM (active)
[10]
  EC50: 5.74 µM (active)

## CCC1OC(=O)C(C)C(OC2CC(C)(O)C(O)C(C)O2)C(C)C(O)C(C)(O)CC(C)C(=O)C(C)C(O)C1C (configuration not stated)
P388
  GI50: > 300 µM (inactive)
P388/ADR
  GI50: > 300 µM (inactive)
SN12K1
  GI50: > 300 µM (inactive)

## N#Cc1ccc(NC(=O)COC(=O)C2CCC2)cc1
Paired box protein Pax-8
  AC50: 21.7 µM (active)

## CCN(CC)S(=O)(=O)c1ccc(C(=O)OCC(=O)NCc2ccco2)cc1
[4]
  IC50: 11.1 µM (active)

## Cc1cc(SCc2cc(=O)n3ccsc3n2)nc2ccccc12
[8]
  IC50: 13.2 µM (active)

## O=C1c2cccc3cc4ccccc4c(c23)C(=O)N1CCNCCN1C(=O)c2cccc3cc4ccccc4c(c23)C1=O
P388
  GI50: 0.27 µM (active)
P388/ADR
  GI50: 0.16 µM (active)
SN12K1
  GI50: 1.91 µM (inactive)

## O=C(C[n+]1cc(Br)cc2ccccc21)c1ccc(Br)cc1
[8]
  IC50: 11.4 µM (active)

## O=C(OCC(=O)N1CCc2ccccc2C1)c1cccc([N+](=O)[O-])c1
Fatty acid synthase [11]
  IC50: 10.9 µM (active)
[5]
  EC50: 2.37 µM (active)
cells
  IC50: 23.1 µM (active)
Fatty acid synthase [12]
  IC50: 9.14 µM (active)

## CCOC(=O)CNC(=O)N(CC)C12CC3CC(CC(C3)C1)C2
P388
  GI50: 79.1 µM (inactive)
P388/ADR
  GI50: 131 µM (inactive)
SN12K1
  GI50: 109 µM (inactive)

## COc1cc(NC(=O)c2csc(-c3ccncc3)n2)cc(C(=O)Nc2cccc(C(F)(F)F)c2)c1
H9c2
  IC50: > 79 µM (inactive)
[8]
  IC50: 6.44 µM (active)

## NC(=S)N/N=C/c1ccc(OC(=O)COc2ccccc2Cl)cn1
P388
  GI50: 3.31 µM (inactive)
P388/ADR
  GI50: 4.97 µM (inactive)
SN12K1
  GI50: 9.29 µM (inactive)

## CC1CCN(CCCNC(=O)c2ccc3c(Cl)c4c(nc3c2)CCCC4)CC1
Vero
  CC50: > 25 µM (active)

## CC1=C(C(=O)OCCOc2ccccc2)C(c2ccsc2)NC(=O)N1C (configuration not stated)
[8]
  IC50: 13.2 µM (active)

## O=C1c2cccc3cccc(c23)C(=O)N1CCN1CCN(CC(O)COc2ccccc2)CC1 (configuration not stated)
[1]
  IC50: > 20 µM (inactive)
